In patent US12421235B2, “Bridged tricyclic carbamoylpyridone compounds and uses thereof” (Gilead Sciences, Inc., priority 2020, dated 2025):

Tests used:
[1] = tested on: HIV-1 (IIIB) in MT-4 cells; assay: HIV MT-4 antiviral assay; type: cell-based; settings: Human immunodeficiency virus 1, MT4, 120 h, 5 days, Cell Titer Glo
Protocol: Example 47: HIV MT-4 Antiviral and Cytotoxicity Assay
Antiviral Assay in MT-4 Cells
(§1) Compounds were tested in a high-throughput 384-well assay format for their ability to inhibit the replication of HIV-1 (IIIB) in MT-4 cells. Compounds were serially diluted (1:3) in DMSO on 384-well polypropylene plates and further diluted 200-fold into complete RPMI media (10% FBS, 1% P/S) using the Biotek Micro Flow and Labcyte ECHO acoustic dispenser. Each plate contained up to 8 test compounds, with negative (No Drug Control) and 5 μM AZT positive controls. MT-4 cells were pre-infected with 10 μL of either RPMI (mock-infected) or a fresh 1:250 dilution of HIV-1 IIIB concentrated virus stock. Infected and uninfected MT-4 cells were further diluted in complete RPMI media and added to each plate using a Micro Flow dispenser. After 5 days incubation in a humidified and temperature controlled incubator (37° C.), Cell Titer Glo (Promega) was added to the assay plates and chemiluminescence read using an Envision plate-reader. EC50 values were defined as the compound concentration that causes a 50% decrease in luminescence signal, and were calculated using a sigmoidal dose-response model to generate curve fits.

[2] = High throughput microsomal stability assay (human liver microsomes); type: in vitro ADME; settings: human liver microsomes, 1 uM compound, NADPH + UDPGA cofactors, 37 C
Protocol: Example 49: High Throughput Microsomal Stability Assay
Metabolic stability of compounds was assessed using Human, or Rat Liver Microsomal assays (Corning). In this assay, 10 nL compounds at concentration of 1 mM in 100% DMSO were dispensed into 384-well polypropylene plates using the Echo 550 acoustic liquid dispenser (Labcyte®). Each plate contained 384 wells with a single test compound in each well.
A solution of human (Corning® Gentest™ Human Mixed Pooled Microsomes), or rat (Corning® Gentest™ Rat [Sprague-Dawley] Pooled Liver Microsomes) liver microsomes at 2 mg/ml in 100 mM K2HPO4/KH2PO4 pH 7.4 with Alamethicin from Trichoderma viride (Sigma-Aldrich) 0.0225 mg/ml were incubated on ice for 15 minutes. 5 uL of this solution was added to individual wells following 15 minute incubation at room temperature; and supplemented with 5 uL NADPH Regenerating Solution of cofactors (Corning® Gentest™ UGT Reaction Mix) containing 100 mM K2HPO4/KH2PO4 pH 7.4, 2.6 mM NADP+, 6.6 mM glucose-6-phosphate, 6.6 mM MgCl2, 0.8 U/mL glucose-6-phosphate dehydrogenase, 0.1 mM Sodium Citrate, 6.8 mM uridine diphosphate-glucuronic acid. Final concentration of analyte compounds at the beginning of the reaction was 1 uM. The reactions were incubated at 37° C. and time points of 0, 5, 15, 30, 40, 50, 60, and 70 minutes were collected for further analysis. Background data were collected using reactions without analyte compounds.
Upon collection of the reaction time points, samples were quenched with 30 uL of a solution of 72% acetonitrile, 8% methanol, 0.1% formic acid, 19.9% water, and internal standard (IS). Reaction plates were span in a centrifuge at speed of 4,000 rcf for 30 minutes and 4° C., following a dilution of the 10 uL quenched reaction into 40 uL de-ionized water, yielding assay plates.
Assay plates were analyzed using solid-state extraction coupled with quadrupole time-of-flight mass spectrometer, using Agilent QToF 6530 RapidFire 360 system, with C4 type A solid state cartridges. Analysis was performed in either positive or negative ionization modes. Mobile phases contained 0.1% formic acid in water for loading analytes onto solid state extraction cartridges, and 0.1% formic acid in acetonitrile for elution into mass spectrometer in positive ionization mode, or 0.1% acetic acid in water for loading and 0.1% acetic acid in acetonitrile for extraction in negative ionization mode. Peak-area ratios of integrated counts for individual compounds to IS were plotted as semi-logarithmic chart of log vs time. Initial, linear portion of decay was fitted to a linear regression equation to derive half time of a compound decay.
Pharmacological parameters for an analyte compound metabolism were calculated using the following equations: […]
Where. Calculation of In Vitro Intrinsic Clearance
Concentration refers to the protein concentration (mg/mL) in the reaction.
Calculation of In Vivo Intrinsic Clearance
This scales the in vitro intrinsic clearance up to the value that would be predicted for the entire mass of liver tissue (but with no restriction by blood flow). The value depends upon the size of the liver (species-dependent) and the yield of microsomal protein as appropriate (assumed to be species-independent).
Calculation of Predicted Clearance
Hepatic clearance will depend upon the inter-relationship of intrinsic clearance and hepatic blood flow and can be predicted from in vitro data using a variety of approaches.
Calculation of Hepatic Extraction
This is simply the predicted clearance expressed as a proportion of hepatic blood flow. E=CL/QH*100%
Intrinsic clearance of the instant compounds, as well as for reference compounds A-F, were calculated following the procedure above.

[3] = Cytotoxicity assay in MT-4 cells; type: cell-based; settings: human, uninfected MT-4 cells, Cell Titer Glo
Protocol: as §1, with “fits. Cytotoxicity Assay in MT-4 Cells Assays were performed as above except uninfected MT-4 cells were added to each well containing test compound. In addition, 10 μM puromycin was added to the last column of each assay plate to assess a base level of cytotoxicity.” for “fits.”

[4] = tested on: pLai RLuc reporter virus in MT-4 cells; assay: HIV MT-4 serum shift antiviral reporter assay; type: cell-based; settings: Human immunodeficiency virus 1, MT4, 72 h, read-out: RLUC CCM
Protocol: Example 48: HIV MT-4 Serum Shift Antiviral Reporter Assay
To quantify the amount of protein binding to human serum, compounds were serially diluted (1:3) in DMSO and acoustically transferred onto 384-well assay plates via a Labcyte ECHO robot. Each plate contained up to 8 test compounds, including negative and positive controls, (DMSO, 5 μM AZT respectively). Assay plates were prepared in duplicate, and tested in either CCM (cell culture media) or HS/CCM (human serum/cell culture media). MT-4 cells were first pre-infected with pLai RLuc reporter virus for 2 h at 37° C., then further diluted in either CCM (RPMI media, 10% FBS, 1% P/S) or HS/CCM (RPMI media, 10% FBS, 50% HS, 1% P/S), and subsequently added to each plate using a Biotek Micro Flow dispenser. After a 72-h incubation in a humidified and temperature controlled incubator (37° C.), Renilla Glo (Promega) was added to all assay plates and chemiluminescence read using an Envision plate-reader. EC50 values were defined as the compound concentration that causes a 50% decrease in luminescence signal, and were calculated using a sigmoidal dose-response model to generate curve fits. To determine the amount of protein binding, EC50 fold shifts (or EC50 shifts) were calculated by dividing EC50 (HS/CCM)/EC50 (CCM). […]

C[C@H]1C=C[C@](C)(O)[C@H]2CN1C(=O)c1c(O)c(=O)c(C(=O)NCc3c(F)cc(F)cc3F)cn12 [Example 15, (1R,10S,13S)-6,13-dihydroxy-10,13-dimethyl-5,8-dioxo-N-[(2,4,6-trifluorophenyl)methyl]-2,9-diazatricyclo[7.4.1.02,7]tetradeca-3,6,11-triene-4-carboxamide]
EC50 [1]: 7.9 nM
HLM stability [2]: 3.17 mL/min/kg
CC50 at 5 days [3]: 28400 nM
EC50 [4]: 1.64 nM

C[C@H]1CC[C@H](O)[C@H]2CN1C(=O)c1c(O)c(=O)c(C(=O)NCc3ccc(F)cc3F)cn12 [Example 16, (3S,6S,7R)—N-(2,4-difluorobenzyl)-6,12-dihydroxy-3-methyl-1,11-dioxo-1,4,5,6,7,11-hexahydro-3H-2,7-methanopyrido[1,2-a][1,4]diazonine-10-carboxamide]
EC50 [1]: 2.6 nM
HLM stability [2]: 1.83 mL/min/kg
CC50 at 5 days [3]: 41400 nM
EC50 [4]: 1.14 nM

C[C@H]1C=C[C@](C)(O)[C@H]2CN1C(=O)c1c(O)c(=O)c(C(=O)NCc3ccc(F)cc3F)cn12 [Example 17, (1R,10S,13S)—N-[(2,4-difluorophenyl)methyl]-6,13-dihydroxy-10,13-dimethyl-5,8-dioxo-2,9-diazatricyclo[7.4.1.02,7]tetradeca-3,6,11-triene-4-carboxamide]
EC50 [1]: 3 nM
HLM stability [2]: 2.83 mL/min/kg
CC50 at 5 days [3]: 31400 nM
EC50 [4]: 1.33 nM

CO[C@H]1C=C[C@H](C)N2C[C@H]1n1cc(C(=O)NCc3c(F)cc(F)cc3F)c(=O)c(O)c1C2=O [Example 18, (3S,6S,7R)-12-hydroxy-6-methoxy-3-methyl-1,11-dioxo-N-(2,4,6-trifluorobenzyl)-1,6,7,11-tetrahydro-3H-2,7-methanopyrido[1,2-a][1,4]diazonine-10-carboxamide]
EC50 [1]: 1.4 nM
HLM stability [2]: 12.2 mL/min/kg
CC50 at 5 days [3]: 13400 nM
EC50 [4]: 0.55 nM

CO[C@H]1C=C[C@H](C)N2C[C@H]1n1cc(C(=O)NCc3ccc(F)cc3F)c(=O)c(O)c1C2=O [Example 19, (3S,6S,7R)—N-(2,4-difluorobenzyl)-12-hydroxy-6-methoxy-3-methyl-1,11-dioxo-1,6,7,11-tetrahydro-3H-2,7-methanopyrido[1,2-a][1,4]diazonine-10-carboxamide]
EC50 [1]: 1.1 nM
HLM stability [2]: 7.83 mL/min/kg
CC50 at 5 days [3]: 20000 nM
EC50 [4]: 0.38 nM

[2H][C@]1(OC)C=C[C@H](C)N2C[C@H]1n1cc(C(=O)NCc3ccc(F)cc3F)c(=O)c(O)c1C2=O [Example 21, (3S,6S,7R)—N-(2,4-difluorobenzyl)-12-hydroxy-6-methoxy-3-methyl-1,11-dioxo-1,6,7,11-tetrahydro-3H-2,7-methanopyrido[1,2-a][1,4]diazonine-6-d-10-carboxamide]
EC50 [1]: 1.8 nM
HLM stability [2]: 6.17 mL/min/kg
CC50 at 5 days [3]: 19300 nM
EC50 [4]: 0.52 nM

CO[C@@]1(C)CC[C@H](C)N2C[C@H]1n1cc(C(=O)NCc3c(F)cc(F)cc3F)c(=O)c(O)c1C2=O [Example 23, (3S,6S,7R)-12-hydroxy-6-methoxy-3,6-dimethyl-1,11-dioxo-N-(2,4,6-trifluorobenzyl)-1,4,5,6,7,11-hexahydro-3H-2,7-methanopyrido[1,2-a][1,4]diazonine-10-carboxamide]
EC50 [1]: 2.2 nM
HLM stability [2]: 12 mL/min/kg
CC50 at 5 days [3]: 9790 nM
EC50 [4]: 0.47 nM

CCO[C@H]1C=C[C@H](C)N2C[C@H]1n1cc(C(=O)NCc3c(F)cc(F)cc3F)c(=O)c(O)c1C2=O [Example 25, (3S,6S,7R)-6-ethoxy-12-hydroxy-3-methyl-1,11-dioxo-N-(2,4,6-trifluorobenzyl)-1,6,7,11-tetrahydro-3H-2,7-methanopyrido[1,2-a][1,4]diazonine-10-carboxamide]
EC50 [1]: 4.1 nM
HLM stability [2]: 9.67 mL/min/kg
CC50 at 5 days [3]: 43700 nM
EC50 [4]: 0.82 nM

CCO[C@H]1CC[C@H](C)N2C[C@H]1n1cc(C(=O)NCc3c(F)cc(F)cc3F)c(=O)c(O)c1C2=O [Example 26, (3S,6S,7R)-6-ethoxy-12-hydroxy-3-methyl-1,11-dioxo-N-(2,4,6-trifluorobenzyl)-1,4,5,6,7,11-hexahydro-3H-2,7-methanopyrido[1,2-a][1,4]diazonine-10-carboxamide]
EC50 [1]: 4.4 nM
HLM stability [2]: 3.67 mL/min/kg
CC50 at 5 days [3]: 44300 nM
EC50 [4]: 0.92 nM

C[C@H]1CC[C@H](OC(F)F)[C@H]2CN1C(=O)c1c(O)c(=O)c(C(=O)NCc3c(F)cc(F)cc3F)cn12 [Example 27, (3S,6S,7R)-6-(difluoromethoxy)-12-hydroxy-3-methyl-1,11-dioxo-N-(2,4,6-trifluorobenzyl)-1,4,5,6,7,11-hexahydro-3H-2,7-methanopyrido[1,2-a][1,4]diazonine-10-carboxamide]
EC50 [1]: 1.1 nM
HLM stability [2]: 14.7 mL/min/kg
CC50 at 5 days [3]: 13600 nM
EC50 [4]: 0.35 nM
